Measured values reported in US20260297060A1, “COMPOUNDS FOR THE DEGRADATION OF MUTANT BRAF” (C4 THERAPEUTICS, INC., priority 2023, published 2026).

How the values were obtained:
[1] = tested on: A375-NRAS^Q61K cells; test: CTGlo Cell Viability Assay, A375-NRAS^Q61K (A375.11) cells, 96 hours; format: cell-based, human; details: A375.11 (A375-NRAS^Q61K) cells; for Emax: lowest % viability achieved
Procedure, shortened: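 A375 cells carrying BRAF V600E and NRAS Q61K were seeded at 250 cells/well with a 10-point half-log dose series (max 10 μM final). After 96 h at 37 °C, viability was read as ATP luminescence (CellTiter-Glo), background-subtracted and normalized to DMSO (100%). GI50 from 4-parameter fit; Emax is the lowest % viability.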

[2] = target: T1, human bile salt export pump (BSEP) efflux transporter (Homo sapiens, UniProt O95342); test: BSEP Vesicular Transport Inhibition Assay (IC50 determination); format: biochemical; details: human BSEP (HEK293) vesicles, taurocholate 0.2 μM, 4 mM Mg-ATP, 10 concentrations, 1 replicate
T1 construct: purchased SOLVO Biotechnology Charles River Laboratories, Szeged, Hungary; host or cells: HEK293 (inside out membrane vesicles)
T1 sequence (O95342 whole entry): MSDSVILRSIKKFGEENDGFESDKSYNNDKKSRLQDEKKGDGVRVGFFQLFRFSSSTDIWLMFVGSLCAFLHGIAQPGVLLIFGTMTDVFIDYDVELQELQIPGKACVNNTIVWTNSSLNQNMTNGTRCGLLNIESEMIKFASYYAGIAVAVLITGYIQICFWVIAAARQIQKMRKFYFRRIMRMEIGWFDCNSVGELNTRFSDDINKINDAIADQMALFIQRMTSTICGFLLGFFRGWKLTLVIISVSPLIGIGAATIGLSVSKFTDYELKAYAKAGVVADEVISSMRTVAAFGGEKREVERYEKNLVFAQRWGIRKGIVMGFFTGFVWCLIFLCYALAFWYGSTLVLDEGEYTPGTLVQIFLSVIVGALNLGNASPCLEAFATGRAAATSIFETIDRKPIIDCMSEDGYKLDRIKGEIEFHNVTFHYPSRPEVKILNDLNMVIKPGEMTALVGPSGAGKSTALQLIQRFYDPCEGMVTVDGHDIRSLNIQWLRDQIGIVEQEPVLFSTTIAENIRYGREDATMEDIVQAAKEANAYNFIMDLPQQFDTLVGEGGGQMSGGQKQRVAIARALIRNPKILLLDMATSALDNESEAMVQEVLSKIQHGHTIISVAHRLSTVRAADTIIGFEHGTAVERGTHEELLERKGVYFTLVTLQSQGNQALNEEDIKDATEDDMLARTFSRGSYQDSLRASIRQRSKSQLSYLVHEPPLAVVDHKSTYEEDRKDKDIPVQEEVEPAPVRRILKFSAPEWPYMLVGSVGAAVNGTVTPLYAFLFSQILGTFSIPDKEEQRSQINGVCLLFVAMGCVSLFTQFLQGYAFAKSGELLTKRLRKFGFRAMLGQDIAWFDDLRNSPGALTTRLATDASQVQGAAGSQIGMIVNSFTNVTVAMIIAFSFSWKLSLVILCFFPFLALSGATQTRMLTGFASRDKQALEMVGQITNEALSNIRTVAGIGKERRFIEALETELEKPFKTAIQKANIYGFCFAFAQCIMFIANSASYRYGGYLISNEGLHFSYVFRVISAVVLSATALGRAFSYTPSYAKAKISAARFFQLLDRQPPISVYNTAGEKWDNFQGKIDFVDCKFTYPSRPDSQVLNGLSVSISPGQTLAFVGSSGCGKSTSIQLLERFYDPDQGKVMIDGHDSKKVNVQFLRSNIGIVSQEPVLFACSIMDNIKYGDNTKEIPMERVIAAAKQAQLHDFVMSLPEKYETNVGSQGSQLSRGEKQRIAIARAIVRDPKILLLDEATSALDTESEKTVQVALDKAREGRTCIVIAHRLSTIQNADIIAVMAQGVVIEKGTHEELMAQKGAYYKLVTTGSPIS
Method: The vesicular transport (VT) assays were performed using inside out membrane vesicles derived from HEK293 cells expressing the specified human bile salt export pump (BSEP) efflux transporter. The membrane vesicles were procured from SOLVO Biotechnology Charles River Laboratories, Szeged, Hungary.
The principle of the assay relies on measuring the accumulation of substrate into inside out vesicles containing the efflux transporter. By utilizing inside out vesicles, the ATP-dependent transport of substrate is directed into the vesicular lumen, where low permeability compounds are then essentially trapped.
For the IC50 screen inhibition assay, 10 concentrations of each compound were tested in the presence of ATP (active transport) in 1 replicate.
The solvent control (DMSO) was tested in the presence of ATP (active transport) and in the presence of AMP (background) in 8 replicates.
Vesicular transport inhibition assays were performed using the specific parameters for each transporter inhibition assay described in Table 53.
Table 54 specifies treatment groups and concentration of compounds, that were examined in the vesicular transport inhibition assay. Detailed data of IC50 screen inhibition assay are shown in Table 55 and detailed data of 1 concentration inhibition assay are shown in Table 56.
The vesicular transport inhibition assay was performed with 4 mM Mg-ATP. For the IC50 screen inhibition assay, 10 concentrations of each compound were tested in the presence of ATP in 1 replicate. For the 1 concentration inhibition assay, 1 concentration of each compound was tested in the presence of ATP (active transport) in 2 replicates. The solvent control (DMSO) was tested in the presence of 4 mM Mg-ATP (active transport) and in the presence of 4 mM AMP (background) in 8 replicates.
The BSEP membrane vesicle suspension was mixed with the ice-cold transport buffer, then the taurocholate probe substrate solution was added (Reaction mixture, 50 μL per well). The compounds were added to the reaction mixture at 1.5-times the final assay concentration. […].
Reaction mixtures and the start reagent (Mg-ATP or AMP in transport buffer) were pre-warmed separately for 15 minutes to reach the incubation temperature of 37° C. […]
The reaction was initiated by the addition of the start reagent (25 μL) to the reaction mixture (diluting the reaction mixture to the final concentration). […] After the 5-minute incubation at 37° C., the reaction was stopped by the addition of 250 μL ice-cold washing mix to each well. […]
The samples were then be transferred to a filter plate and washed with 200 μL cold washing mix5-times to remove any free compounds or taurocholate probe substrate. The amount of taurocholate probe substrate inside the filtered vesicles were determined by liquid scintillation counting. […]

Row | SMILES | GI50 ([1]; Homo sapiens, 96 h) [µM] | Emax ([1]; Homo sapiens, 96 h) [%] | BSEP Inhibition/IC50 [2] [µM] | BSEP Inhibition/IC50 ([2]; in nM) | GI50 [1] [µM]
1 | CCN(C)S(=O)(=O)Nc1ccc(F)c(Oc2ccc3ncn([C@H]4COC5(CCC(N6CC7(CN(c8ccc(NC9CCC(=O)NC9=O)cc8F)C7)C6)CC5)C4)c(=O)c3c2)c1C#N (stereo partly drawn) [Compound 30, 6-[2-cyano-3-[[ethyl(methyl)sulfamoyl]amino]-6-fluoro-phenoxy]-3-[(3R)-8-[6-[4-[(2,6-dioxo-3-piperidyl)amino]-2-fluoro-phenyl]-2,6-diazaspiro[3.3]heptan-2-yl]-1-oxaspiro[4.5]decan-3-yl]-4-oxo-quinazoline] | 1 to 10 | < 50 | 8.52 | – | –
2 | CCN(C)S(=O)(=O)Nc1ccc(F)c(Oc2ccc3ncc([C@H]4COC5(CCN(C6CCC(c7cc8c(cc7F)c(N7CCC(=O)NC7=O)nn8C)CC6F)CC5)C4)nc3c2)c1C#N (single isomer, unassigned) [Compound 160] | < 1 | 50 to 90 | 1.58 | – | –
3 | Cn1nc(N2CCC(=O)NC2=O)c2cc(F)c(C3CCC(N4CCC5(CC4)CC(n4cnc6ccc(Oc7c(F)ccc(NS(=O)(=O)C8CCCC8)c7C#N)cc6c4=O)C5)CC3)cc21 (single isomer, unassigned) [Compound 93, N-[2-cyano-3-[3-[7-[4-[3-(2,4-dioxohexahydropyrimidin-1-yl)-5-fluoro-1-methyl-indazol-6-yl]cyclohexyl]-7-azaspiro[3.5]nonan-2-yl]-4-oxo-quinazolin-6-yl]oxy-4-fluoro-phenyl]cyclopentanesulfonamide] | < 1 | < 50 | – | >40000 | –
4 | CCN(C)S(=O)(=O)Nc1ccc(F)c(Oc2ccc3ncn([C@H]4COC5(CCN(C6CC(c7cc8c(cc7F)c(N7CCC(=O)NC7=O)nn8C)C6)CC5)C4)c(=O)c3c2)c1C#N (single isomer, unassigned) [Compound 70] | < 1 | < 50 | 2.08 | – | –
5 | CCN(C)S(=O)(=O)Nc1ccc(F)c(Oc2ccc3ncn([C@H]4COC5(CCN(C6CC7(C6)CN(c6cc8c(cc6F)c(N6CCC(=O)NC6=O)nn8C)C7)CC5)C4)c(=O)c3c2)c1C#N [Compound 26, (3R)-3-[6-[2-cyano-3-[[ethyl(methyl)sulfamoyl]amino]-6-fluoro-phenoxy]-4-oxo-quinazolin-3-yl]-8-[2-[3-(2,4-dioxohexahydropyrimidin-1-yl)-5-fluoro-1-methyl-indazol-6-yl]-2-azaspiro[3.3]heptan-6-yl]-1-oxa-8-azaspiro[4.5]decane] | < 1 | 50 to 90 | – | 21770 | –
6 | CCN(C)S(=O)(=O)Nc1ccc(F)c(Oc2ccc3ncn(C4CC5(CCN(C6CC7(C6)CN(c6cc8c(cc6F)c(N6CCC(=O)NC6=O)nn8C)C7)CC5)C4)c(=O)c3c2)c1C#N (stereo not drawn) [Compound 141, 6-[2-cyano-3-[[ethyl(methyl)sulfamoyl]amino]-6-fluoro-phenoxy]-3-[7-[2-[3-(2,4-dioxohexahydropyrimidin-1-yl)-5-fluoro-1-methyl-indazol-6-yl]-2-azaspiro[3.3]heptan-6-yl]-7-azaspiro[3.5]nonan-2-yl]-4-oxo-quinazoline] | < 1 | 50 to 90 | – | >40000 | –
7 | CCN(C)S(=O)(=O)Nc1ccc(F)c(Oc2ccc3ncc([C@H]4COC5(CCN(C6CC7(C6)CN(c6cc8c(cc6F)c(N6CCC(=O)NC6=O)nn8C)C7)CC5)C4)nc3c2)c1C#N [Compound 158, (3S)-3-[7-[2-cyano-3-[[ethyl(methyl)sulfamoyl]amino]-6-fluoro-phenoxy]quinoxalin-2-yl]-8-[2-[3-(2,4-dioxohexahydropyrimidin-1-yl)-5-fluoro-1-methyl-indazol-6-yl]-2-azaspiro[3.3]heptan-6-yl]-1-oxa-8-azaspiro[4.5]decane] | < 1 | 50 to 90 | 7.53 | – | –
8 | CN(CCO)S(=O)(=O)Nc1ccc(F)c(Oc2ccc3ncn(C4CC5(CCN(C6CCC(c7cc8c(cc7F)c(N7CCC(=O)NC7=O)nn8C)CC6F)CC5)C4)c(=O)c3c2)c1C#N (single isomer, unassigned) [Compound 145, 6-[2-cyano-6-fluoro-3-[[2-hydroxyethyl(methyl)sulfamoyl]amino]phenoxy]-3-[7-[4-[3-(2,4-dioxohexahydropyrimidin-1-yl)-5-fluoro-1-methyl-indazol-6-yl]-2-fluoro-cyclohexyl]-7-azaspiro[3.5]nonan-2-yl]-4-oxo-quinazoline] | – | 50 to 90 | – | 21630 | 1 to 10
9 | Cn1nc(N2CCC(=O)NC2=O)c2cc(F)c(N3CC4(CC(N5CCC6(CC5)C[C@@H](n5cnc7ccc(Oc8c(F)ccc(NS(=O)(=O)N9CC[C@@H](F)C9)c8C#N)cc7c5=O)CO6)C4)C3)cc21 [Compound 133, (3R)-N-[2-cyano-3-[3-[(3R)-8-[2-[3-(2,4-dioxohexahydropyrimidin-1-yl)-5-fluoro-1-methyl-indazol-6-yl]-2-azaspiro[3.3]heptan-6-yl]-1-oxa-8-azaspiro[4.5]decan-3-yl]-4-oxo-quinazolin-6-yl]oxy-4-fluoro-phenyl]-3-fluoro-pyrrolidine-1-sulfonamide] | 1 to 10 | < 50 | 6.22 | – | –
10 | COC1CN(S(=O)(=O)Nc2ccc(F)c(Oc3ccc4ncn([C@H]5COC6(CCN(C7CC8(C7)CN(c7cc9c(cc7F)c(N7CCC(=O)NC7=O)nn9C)C8)CC6)C5)c(=O)c4c3)c2C#N)C1 [Compound 246, N-[2-cyano-3-[3-[(3R)-8-[2-[3-(2,4-dioxohexahydropyrimidin-1-yl)-5-fluoro-1-methyl-indazol-6-yl]-2-azaspiro[3.3]heptan-6-yl]-1-oxa-8-azaspiro[4.5]decan-3-yl]-4-oxo-quinazolin-6-yl]oxy-4-fluoro-phenyl]-3-methoxy-azetidine-1-sulfonamide] | < 1 | < 50 | 8.79 | – | –
11 | Cn1nc(N2CCC(=O)NC2=O)c2cc(F)c(N3CC4(CC(N5CCC6(CC5)CC(n5cnc7ccc(Oc8c(F)ccc(NS(=O)(=O)C9CCC9)c8C#N)cc7c5=O)C6)C4)C3)cc21 [Compound 259, N-[2-cyano-3-[3-[7-[2-[3-(2,4-dioxohexahydropyrimidin-1-yl)-5-fluoro-1-methyl-indazol-6-yl]-2-azaspiro[3.3]heptan-6-yl]-7-azaspiro[3.5]nonan-2-yl]-4-oxo-quinazolin-6-yl]oxy-4-fluoro-phenyl]cyclobutanesulfonamide] | < 1 | < 50 | – | 12760 | –
12 | Cn1nc(N2CCC(=O)NC2=O)c2cc(F)c(N3CC4(CC(N5CCC6(CC5)C[C@@H](n5cnc7ccc(Oc8c(F)ccc(NS(=O)(=O)N9CC%10(CCC%10)C9)c8C#N)cc7c5=O)CO6)C4)C3)cc21 [Compound 254, N-[2-cyano-3-[3-[(3R)-8-[2-[3-(2,4-dioxohexahydropyrimidin-1-yl)-5-fluoro-1-methyl-indazol-6-yl]-2-azaspiro[3.3]heptan-6-yl]-1-oxa-8-azaspiro[4.5]decan-3-yl]-4-oxo-quinazolin-6-yl]oxy-4-fluoro-phenyl]-2-azaspiro[3.3]heptane-2-sulfonamide] | < 1 | < 50 | 1.74 | – | –
